Assay results published in patent US20240165108A1, “NOVEL USE” (GlaxoSmithKline Intellectual Property Development Limited, priority 2022, published 2024).
One block for each compound: values may come before it.

Assays:
GPR91 [1] = molecular target: T1, GPR91 (Homo sapiens, UniProt Q9BXA5); assay: Calcium flux in HEK293; type: cell-based; details: read-out: Test compound pIC50, Calcium flux in HEK293 (converted)
T1 sequence (Q9BXA5 1-334): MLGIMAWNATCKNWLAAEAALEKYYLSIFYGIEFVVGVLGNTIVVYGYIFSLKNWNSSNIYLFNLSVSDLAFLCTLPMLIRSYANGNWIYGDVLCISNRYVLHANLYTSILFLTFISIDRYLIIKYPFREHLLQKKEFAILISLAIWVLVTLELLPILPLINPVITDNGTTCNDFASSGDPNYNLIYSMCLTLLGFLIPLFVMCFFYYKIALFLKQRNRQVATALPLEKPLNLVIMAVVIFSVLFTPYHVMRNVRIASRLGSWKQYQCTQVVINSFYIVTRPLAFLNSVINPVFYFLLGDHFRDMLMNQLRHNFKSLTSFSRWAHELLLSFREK
Excerpt: (§1) GPR91 inhibition can be measured according to the art. For example, GPR91 inhibition may be measured by testing a compound in a G-protein functional assay such as Calcium flux, IP1 accumulation and GTPyS. GPR91 inhibition may be measured by testing a compound in phenotypic assays which measures a cytokine response that is relevant to the indication.

human hair follicles [2] = assay: Microscopic hair cycle staging in ex vivo hair follicle organ culture; type: cell-based; details: for percentage of hair follicles in the anagen phase: donors with healthy hair follicles
Excerpt: Compounds, at the concentrations indicated, are present throughout the duration of the hair follicle culture at 0.1% DMSO.

human hair follicles [3] = assay: Dermal papilla area and melanin clumping, Fontana-Masson stained ex vivo hair follicles; type: cell-based; details: for dermal papilla area: healthy hair follicles
Description: Microscopic hair cycle staging: Hair cycle staging is performed at the end of the culture and can be determined according to several established parameters as described previously. Hair follicles are microscopically evaluated for the hair cycle staging using Masson-Fontana histochemistry and Ki-67/TUNEL immunostaining as previously described. […] Melanin clumps are indicated on the images by the orange arrows, and are counted in the Masson-fontana stained section at the end of the culture in a defined region of interest starting at the Auber's line and including the precortical hair matrix as described previously.

human hair follicles [4] = assay: Versican immunofluorescence in dermal papilla of hair follicles; type: cell-based; details: healthy hair follicles
Excerpt: Versican immunofluorescence (as previously described in Soma et al J Dermatol Sci 2005, doi: 10.1016/j.jdermsci.2005.03.010) was used to determine hair follicle inductive properties.

human hair follicles [5] = assay: RNA sequencing of ex vivo cultured hair follicles; type: cell-based
Description: RNA extraction, sequencing and analysis were performed as follows; RNA from n=2-3 hair follicles per group was extracted using […]® PicoPure® RNA Isolation Kit (ThermoFisher) including a Dnase digestions step using the Rnase-Free Dnase Set from Qiagen and stored at −80 degrees Celsius until analysed. RNA concentration, purity and integrity were assessed before sequencing. Sequencing was performed on a NovaSeq 6000 using 2×100 bp read length with an output of approximately 30 M clusters (6 Gb per sample). Demultiplexing of the sequencing reads was performed with Illumina bcl2fastq (2.20).
Briefly, DESeq2 first creates a pseudo-reference sample (row-wise geometric mean) and calculates the ratio of each sample to this reference. Then, the normalization factor for each sample (size factor) is calculated using the median value of all ratios for a given sample. Normalized count values are created by dividing each raw count value in a given sample by that sample's normalization factor. Finally, DESeq2 calculates p values and adjusted p values for genes of two groups by allowing the shrinkage of the log 2 fold changes when the information for a gene is low (low counts or high dispersion values). For manual calculation of fold change (FC) between two groups, the ratio of the normalized read counts was used. And FC is considered relevant or significant if it is greater of equal to 2 (upregulation) or smaller that or equal to 0.5 (downregulation).

GPR91 [6] = molecular target: T1, GPR91; assay: GTPyS G-protein functional assay; type: biochemical; design: host or cells: LUVA; details: read-out: Test compound pIC50, GTPyS (converted)
Excerpt: as §1

GPR91 [7] = molecular target: T1, GPR91; assay: IP1 accumulation; type: cell-based; design: host or cells: LUVA; details: read-out: Test compound pIC50, IP1 (converted)
Excerpt: as §1

GPR91 [8] = molecular target: T1, GPR91; assay: Succinate-stimulated secretion of PGD2 and cytokines/chemokines in LUVA cells; type: cell-based; design: host or cells: LUVA
Description: After the incubation, the cell suspension was centrifuged, and the supernatant was collected for downstream readouts of secreted factors including Prostaglandin D2 (PGD2) by ELISA (Cayman Chemical PGD2 EIA kit), and cytokines/chemokines TNFa, MIP1a and Eotaxin-3 by MSD (Mesoscale V-Plex Plus proinflammatory panel 1, Plus Chemokine Panel 1).
A GPR91 knockout in LUVA cells (received from Kerafast Inc) was generated using CRISPR technology with a single guide following protocols known in the art. The guide RNA sequence used was […] (SEQ ID NO: 4). The guide RNA cut location was chromosome 3: 151,880,674.

GPR91 [9] = molecular target: T1, GPR91; details: TREM2 expressing M2 macrophages, succinate for 48 hr
Description: Oncostatin M levels were determined by ELISA (Abcam ab215543) according to the manufacturer's instructions.
Oncostatin M levels were determined by ELISA according to the manufacturer's instructions. […] Supernatants were collected and Oncostatin M levels were measured.

dermal papilla cells [10] = system: dermal papilla cells
Description: iPSC were differentiated and polarized to an M2 like macrophage phenotype as previously described. […] Media was collected from the treated iPSC after 48 hours of incubation, which is referred to as conditioned media. The dermal papilla from both male and female donors were plated at 5K cells/well onto a collagen coated E-Plate and analysed using the XCELLIGENCE® platform according to the manufacturer's instructions. The cells are analysed in the machine for 24 hours to determine adherence to the plate and establishment of baseline measurements. After 24 hours, the media is aspirated, and macrophage conditioned media is added to the cells for up to 117 hours and the effects of the GPR91 dependent iPSC secretome on dermal papilla proliferation are analyzed.

[11] = system: hair matrix keratinocytes; details: hair follicles from healthy donors
Description: Hair follicle organ cultures ex vivo: Full length hair follicles were micro dissected from scalp skin or FUEs as above.
Quantitative evaluation of hair matrix keratinocyte proliferation and apoptosis is performed in Ki-67/TUNEL stained sections of the hair follicle. The germinative hair matrix keratinocyte proliferation is calculated as the percentage of KI-67 positive nuclei. Intra-follicular apoptosis is analyzed using TUNEL staining (TdT-mediated dUTP-biotin nick end labelling) as described previously.

[12] = system: human iPSC derived M2 macrophages; details: succinate present during macrophage polarization
Description: IPSC precursor cells were differentiated into macrophages using differentiation media known in the art followed by polarisation into M1 and M2 macrophage phenotypes using LPS+IFNg and IL4+IL13 stimulation, respectively.
The TREM2 primer probe set used to determine expression levels was purchased from ThermoFisher (Hs01003898_m1). Relative expression (AU: Arbitrary units) was calculated using 2^−dCT, where dCT is calculated as CT (TREM2)−CT(Housekeeper Gene). In these experiments, the housekeeper gene used was RPLP0 (ribosomal phosphoprotein PO) (Primer Probe purchased from ThermoFisher Assay ID: He00420895_gH).

[13] = system: JAK-STAT signaling pathway; assay: STAT3/STAT5 phosphorylation in dermal papilla cells treated with oncostatin M; type: cell-based, human
Description: (§2) The downstream effects of recombinant oncostatin M was assessed by evaluating signalling pathways (such as the JAK-STAT pathway previously associated with oncostatin M induced senescence in mouse [Wang 2019, PMID 30930146]) and markers associated with senescence to link specific mediators in the macrophage secretome (like oncostatin M) to disease relevant mechanisms. Dermal papilla cells in culture were treated with recombinant oncostatin M protein from BioLegend. Tofacitinib was received from MedChemExpress as a ready-made 10 mM solution and used at the indicated concentration.
Protein quantification: protein was extracted after lysis with RIPA buffer and quantified by BCA using methods known in the art. Protein was loaded onto a gel and run with NuPage MES SDS running buffer and transferred onto nitrocellulose membrane using the iBlot2 according to manufacturer's instructions and procedures known in the art. The following primary antibodies were used to assess expression of the relative proteins described: Human anti-Total STAT5 antibody, Isotype (Rabbit polyclonal IgG) from Abcam, Human anti-Phospho STAT5 antibody, Isotype (Rabbit polyclonal IgG) from Abcam, Anti-Human total STAT3 (D3Z2G) from Cell Signaling Technologies, Anti-Human pSTAT3 (Y705) (D3A7) from Cell Signaling Technologies and the control antibody, β-Actin (8H10D10) Mouse IgG2b mAb from Cell Signaling Technologies. […]

dermal papilla cells [14] = assay: FGF18 and BMP6 gene expression in dermal papilla cells (RT-qPCR); type: cell-based, human; details: oncostatin M 10 ng/ml and 100 ng/ml
Description: as §2
Gene expression: mRNA was extracted as previously described in example 1. […] The following Taqman probes were used to identify target specific mRNA transcripts: FGF18 (Assay ID: Hs00826077_m1), and BMP6 (Assay ID: Hs01099594_m1).

dermal papilla cells [15] = assay: Beta galactosidase activity (senescence) in dermal papilla; type: cell-based, human
Description: as §2
Beta Galactosidase Activity: A B-Galactosidase Activity Assay Kit (Fluorescence, Plate-Based) from Cell Signalling Technology #23833 was used to assess cellular senescence. The instructions were followed according to the manufacturer's instructions.

[16] = affected scalp regions, 5 nM, 24 hours
[17] = LUVA cells, compound 1 hr prior to succinate stimulation, read-out: Test compound pIC50, MIP-1a (converted)
[18] = healthy hair follicles after succinate
[19] = LUVA cells, succinate 3 hours, MSD

- IC50 (GPR91 [1]): 0.0398 µM
- IC50 (GPR91 [6]): 0.0316 µM
- IC50 (GPR91 [7]): 0.1 µM
- Test compound pIC50, PGD2 (GPR91 [8]; LUVA cells, compound 1 hr prior to succinate stimulation): 7.6
- IC50 (GPR91 [8]; [17]): 0.0794 µM
Compound: CN1CCN(Cc2ccc(-c3cccc(C(=O)Nc4ccccc4CC(=O)O)c3)cc2)CC1 [Compound 1, 2-(2-(4′-((4-methylpiperazin-1-yl)methyl)-[1,1′-biphenyl]-3-carboxamido)phenyl)acetic acid]
- percentage of hair follicles in the anagen phase (human hair follicles [2]): increases the percentage of hair follicles in the anagen phase
- size of the dermal papilla area, representative images (human hair follicles [3]; 5 uM and 50 uM): increased size of the dermal papilla area
- dermal papilla area, AGA (human hair follicles [3]; AGA hair follicles, affected/balding region of the scalp): increases the dermal papilla area
- dermal papilla area (human hair follicles [3]): increases the dermal papilla area
- versican expression in the dermal papilla (human hair follicles [4]): Increased versican expression
- genes of apoptotic processes, cell chemotaxis and immune function (human hair follicles [5]; [16]): significant downregulation in genes that play a role in apoptotic processes, cell chemotaxis and immune function
- genes related to metabolic processes and biosynthesis of macromolecules (human hair follicles [5]; [16]): increase in genes related to increased metabolic processes and biosynthesis of macromolecules
- hair keratins gene expression (human hair follicles [5]; [16]): significant upregulation in hair keratins

- IC50 (GPR91 [1]): 0.0251 µM
- IC50 (GPR91 [6]): 1.26 µM
- IC50 (GPR91 [7]): 7.94 µM
- IC50 (GPR91 [8]; [17]): 1 µM
- IC50 (GPR91 [8]; LUVA cells, compound 1 hr prior to succinate stimulation, read-out: Test compound pIC50, PGD2 (converted)): 0.0631 µM
Compound: O=C(CCCc1ccc2cccnc2n1)NCc1cc(-c2ccc(F)c(C(F)(F)F)c2)no1 [Compound 2, N-[{3-(3-trifluoromethyl-4-fluorophenyl)isoxazol-5-yl}methyl]-4-([1,8]naphthyridin-2-yl)butyramide]
- percentage of hair follicles in the anagen phase (human hair follicles [2]): increases the percentage of hair follicles in the anagen phase

Compound: O=C([O-])CCC(=O)[O-].[Na+].[Na+] [Succinate, Sodium succinate]
- oncostatin M secretion (GPR91 [9]): secrete higher levels of oncostatin M
- dermal papilla proliferation with conditioned media of succinate treated macrophages (dermal papilla cells [10]; 3 mM succinate, male and female donors): inhibit dermal papilla proliferation
- dermal papilla proliferation, succinate by itself (dermal papilla cells [10]; direct treatment of dermal papilla cells): does not induce any changes in the proliferation of dermal papilla cells
- percentage of hair follicles in the catagen phase (human hair follicles [2]; GPR91 activation by succinate): increases the percentage of hair follicles in the catagen phase
- toxicity to hair follicles (human hair follicles [2]; at high concentrations): highly toxic to hair follicles
- dermal papilla area (human hair follicles [3]): decreased size of the dermal papilla area
- hair matrix keratinocyte proliferation [11]: reduces hair matrix keratinocyte proliferation
- apoptosis ([11]; TUNEL): increases apoptosis
- genes related to immune activation (cytokine and chemokine response) (human hair follicles [5]; [18]): increase in genes related to immune activation
- genes that regulate hair follicle pathways and keratins (human hair follicles [5]; [18]): significant downregulation in genes that regulate hair follicle pathways
- TREM2 expression [12]: higher levels of expression of TREM2
- TNFa and MIP-1a response to succinate in GPR91 knockout (GPR91 [8]; GPR91 knockout LUVA cell line, 3 hr and 72 hour): lack of response
- TNFa and MIP-1a response to succinate (GPR91 [8]; LUVA cells, 3 hr and 72 hour post succinate addition): robust TNFa and MIP-1a response
- Succinate control pEC50, MIP-1a (GPR91 [8]; [19]): 3.4
- Succinate control pEC50, TNF-α (GPR91 [8]; [19]): 4.2
- Succinate control pEC50, PGD2 (GPR91 [8]; LUVA cells, succinate 3 hours, PGD2 ELISA): 3.5

Compound: C[C@@H]1CCN(C(=O)CC#N)C[C@@H]1N(C)c1ncnc2[nH]ccc12 [Tofacitinib, reference compound]
- oncostatin M induced phosphorylation of STAT3 and STAT5 ([13]; JAK inhibitor co-treatment): can be blocked

Compound: oncostatin M: recombinant oncostatin M protein from BioLegend; cytokine shown to induce hair follicle quiescence in mice
- JAK-STAT signaling, phosphorylation of STAT3 and STAT5 ([13]; recombinant oncostatin M applied to dermal papilla): activates the JAK-STAT signaling pathway
- expression of BMP6 (dermal papilla cells [14]): downregulates expression of BMP6
- expression of FGF18 (dermal papilla cells [14]): increases the expression of FGF18
- senescence, β-galactosidase activity (dermal papilla cells [15]): induces senescence
